In publication PMC9821906, “Synthesis of New Triazole-Based Thiosemicarbazone Derivatives as Anti-Alzheimer’s Disease Candidates: Evidence-Based In Vitro Study” (Molecules, 2022):

How the values were obtained:
[1] = target: butyrylcholinesterase (BuChE) (Homo sapiens, UniProt P06276); format: biochemical
Method: (§1) Based on previously described methods, in vitro study of AChE inhibitory profile was calculated. In order to make a stock solution, compounds being analyzed were dissolved in DMSO (1 mg/mL). In addition, the working solutions were also prepared by using serial dilution (1–100 μg/mL). The solution of AChE enzyme (20 μL; 0.1 U/mL), analogues being tested with different concentration and buffer of sodium phosphate (150 μL; pH 8.0; 0.1 M) were preincubated appropriately at 25 °C. The process was initiated as DTNB (10 mM; 10 μL) and […] (14 mM; 10 μL) were accumulated. The resulting residue was mixed (by using cyclomixer) and put on incubation for 10 min at 25 °C. Instead of compounds being tested using 10 μL DMSO, the absorbance against blank reading was calculated with a microplate reader at 410 nm.
(§2) By plotting a nonlinear graph between inhibition and concentration, IC50 was calculated using GraphPad Prism 5.3.
In order to explore the inhibition profile of in vitro BuChE enzyme, a similar procedure was adopted. For measurement of BuChE activity, the solution containing BuChE enzyme was used.

[2] = target: acetylcholinesterase (AChE) (Homo sapiens, UniProt P22303); format: biochemical
Method: as §1, §2

Sequence of acetylcholinesterase (AChE) (P22303 32-614, species assumed): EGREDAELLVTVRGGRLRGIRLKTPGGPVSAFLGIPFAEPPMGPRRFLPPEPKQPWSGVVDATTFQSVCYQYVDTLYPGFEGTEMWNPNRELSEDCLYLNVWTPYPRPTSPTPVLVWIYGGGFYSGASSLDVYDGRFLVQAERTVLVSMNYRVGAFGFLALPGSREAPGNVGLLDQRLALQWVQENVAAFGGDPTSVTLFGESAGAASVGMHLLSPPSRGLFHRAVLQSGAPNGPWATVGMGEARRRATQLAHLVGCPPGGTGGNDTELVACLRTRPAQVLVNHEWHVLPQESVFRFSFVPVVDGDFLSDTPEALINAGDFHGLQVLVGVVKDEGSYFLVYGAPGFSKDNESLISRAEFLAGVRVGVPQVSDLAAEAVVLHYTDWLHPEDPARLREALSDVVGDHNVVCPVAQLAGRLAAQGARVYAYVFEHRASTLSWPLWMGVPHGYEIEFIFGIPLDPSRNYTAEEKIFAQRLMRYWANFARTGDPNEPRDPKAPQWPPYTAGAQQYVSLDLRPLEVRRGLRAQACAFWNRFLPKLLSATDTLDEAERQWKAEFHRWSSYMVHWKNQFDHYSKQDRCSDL
Sequence of butyrylcholinesterase (BuChE) (P06276 29-602): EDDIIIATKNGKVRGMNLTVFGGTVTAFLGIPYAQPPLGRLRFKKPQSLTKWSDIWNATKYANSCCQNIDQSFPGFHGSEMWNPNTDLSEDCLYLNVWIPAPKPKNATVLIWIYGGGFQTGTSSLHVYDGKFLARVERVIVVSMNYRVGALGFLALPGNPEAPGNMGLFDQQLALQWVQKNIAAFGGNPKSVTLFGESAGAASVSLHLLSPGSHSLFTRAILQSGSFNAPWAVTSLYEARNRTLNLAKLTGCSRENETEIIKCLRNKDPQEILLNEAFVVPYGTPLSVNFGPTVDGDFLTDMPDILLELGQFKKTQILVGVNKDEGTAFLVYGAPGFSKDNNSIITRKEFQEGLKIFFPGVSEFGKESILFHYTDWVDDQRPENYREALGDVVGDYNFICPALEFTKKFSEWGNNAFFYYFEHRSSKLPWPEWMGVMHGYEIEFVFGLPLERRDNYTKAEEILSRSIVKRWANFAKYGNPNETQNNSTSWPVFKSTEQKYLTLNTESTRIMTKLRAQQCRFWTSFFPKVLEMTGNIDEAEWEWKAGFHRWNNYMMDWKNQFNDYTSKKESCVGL

| Compound | IC50 [1] | IC50 [2] | Selectivity Index [2] | BuChE IC50 [1] | AChE IC50 [2] |
| --- | --- | --- | --- | --- | --- |
| Cc1ccc(-c2ccc(NC(=S)N/N=C(/CSc3nnc(-c4ccc([N+](=O)[O-])cc4)[nH]3)c3ccc(Br)cc3)cc2)cc1 [6k, (.E)-2-(1-(4-bromophenyl)-2-((5-(4-nitrophenyl)-4H-1,2,4-triazol-3-yl)thio)ethylidene)-N-(4′-methyl-[1,1′-biphenyl]-4-yl)hydrazine-1-carbothioamide] | 14.1 ± 0.4 µM | 12.2 ± 0.3 µM | 1.15 | – | – |
| O=[N+]([O-])c1ccc(-c2nnc(SC/C(=N/NC(=S)Nc3ccccc3)c3ccc(-c4ccccc4)cc3)[nH]2)cc1 [6c, (.E)-2-(1-([1,1′-biphenyl]-4-yl)-2-((5-(4-nitrophenyl)-4H-1,2,4-triazol-3-yl)thio)ethylidene)-N-phenylhydrazine-1-carbothioamide] | – | – | – | completely inactive | completely inactive |
| O=[N+]([O-])c1ccc(NC(=S)N/N=C(/CSc2nnc(-c3ccc([N+](=O)[O-])cc3)[nH]2)c2ccc(Cl)c(Cl)c2)cc1 [6n, (.E)-2-(1-(3,4-dichlorophenyl)-2-((5-(4-nitrophenyl)-4H-1,2,4-triazol-3-yl)thio)ethylidene)-N-(4-nitrophenyl)hydrazine-1-carbothioamide] | 1.7 ± 0.05 µM | 0.7 ± 0.05 µM | 2.43 | – | – |
| O=[N+]([O-])c1ccc(-c2nnc(SC/C(=N/NC(=S)Nc3ccccc3)c3ccc(Cl)c(Cl)c3)[nH]2)cc1 [6o, (.E)-2-(1-(3,4-dichlorophenyl)-2-((5-(4-nitrophenyl)-4H-1,2,4-triazol-3-yl)thio)ethylidene)-N-phenylhydrazine-1-carbothioamide] | 3.1 ± 0.4 µM | 2.5 ± 0.3 µM | 1.24 | – | – |
| Cc1ccc(/C(CSc2nnc(-c3ccc([N+](=O)[O-])cc3)[nH]2)=N\NC(=S)Nc2cc(Cl)c(Cl)cc2[N+](=O)[O-])c([N+](=O)[O-])c1 [6l, (.E)-N-(4,5-dichloro-2-nitrophenyl)-2-(1-(4-methyl-2-nitrophenyl)-2-((5-(4-nitrophenyl)-4H-1,2,4-triazol-3-yl)thio)ethylidene)hydrazine-1-carbothioamide] | 5.9 ± 0.1 µM | 4.6 ± 0.01 µM | 1.28 | – | – |
| Cc1ccc(NC(=S)N/N=C(/CSc2nnc(-c3ccc([N+](=O)[O-])cc3)[nH]2)c2ccc(Br)cc2)c([N+](=O)[O-])c1 [6h, (.E)-2-(1-(4-bromophenyl)-2-((5-(4-nitrophenyl)-4H-1,2,4-triazol-3-yl)thio)ethylidene)-N-(4-methyl-2-nitrophenyl)hydrazine-1-carbothioamide] | 11.2 ± 0.3 µM | 9.1 ± 0.2 µM | 1.23 | – | – |
| Cc1ccc(NC(=S)N/N=C(/CSc2nnc(-c3ccc([N+](=O)[O-])cc3)[nH]2)c2ccc(Cl)c(Cl)c2)c([N+](=O)[O-])c1 [6m, (.E)-2-(1-(3,4-dichlorophenyl)-2-((5-(4-nitrophenyl)-4H-1,2,4-triazol-3-yl)thio)ethylidene)-N-(4-methyl-2-nitrophenyl)hydrazine-1-carbothioamide] | 3.8 ± 0.1 µM | 2.7 ± 0.1 µM | 1.41 | – | – |
| Cc1ccc(-c2ccc(NC(=S)N/N=C(/CSc3nnc(-c4ccc([N+](=O)[O-])cc4)[nH]3)c3ccc(Cl)c(Cl)c3)cc2)cc1 [6p, (.E)-2-(1-(3,4-dichlorophenyl)-2-((5-(4-nitrophenyl)-4H-1,2,4-triazol-3-yl)thio)ethylidene)-N-(4′-methyl-[1,1′-biphenyl]-4-yl)hydrazine-1-carbothioamide] | 4.6 ± 0.1 µM | 3.2 ± 0.1 µM | 1.44 | – | – |
| COc1ccc(OC)c(/C(CSc2nnc(-c3ccc([N+](=O)[O-])cc3)[nH]2)=N\NC(=S)Nc2ccc(C)cc2[N+](=O)[O-])c1 [6f, (.E)-2-(1-(2,5-dimethoxyphenyl)-2-((5-(4-nitrophenyl)-4H-1,2,4-triazol-3-yl)thio)ethylidene)-N-(4-methyl-2-nitrophenyl)hydrazine-1-carbothioamide] | 4.7 ± 0.1 µM | 2.4 ± 0.1 µM | 1.96 | – | – |
| O=[N+]([O-])c1ccc(-c2nnc(SC/C(=N/NC(=S)Nc3cccc([N+](=O)[O-])c3)c3ccc(-c4ccccc4)cc3)[nH]2)cc1 [6e, (.E)-2-(1-([1,1′-biphenyl]-4-yl)-2-((5-(4-nitrophenyl)-4H-1,2,4-triazol-3-yl)thio)ethylidene)-N-(3-nitrophenyl)hydrazine-1-carbothioamide] | 6.3 ± 0.1 µM | 4.7 ± 0.1 µM | 1.34 | – | – |
| COc1cccc(/C(CSc2nnc(-c3ccc([N+](=O)[O-])cc3)[nH]2)=N\NC(=S)Nc2ccc([N+](=O)[O-])cc2)c1 [6u, (.E)-2-(1-(3-methoxyphenyl)-2-((5-(4-nitrophenyl)-4H-1,2,4-triazol-3-yl)thio)ethylidene)-N-(4-nitrophenyl)hydrazine-1-carbothioamide] | 3.7 ± 0.1 µM | 2.9 ± 0.1 µM | 1.28 | – | – |
| COc1ccc(OC)c(/C(CSc2nnc(-c3ccc([N+](=O)[O-])cc3)[nH]2)=N\NC(=S)Nc2ccc([N+](=O)[O-])cc2)c1 [6g, (.E)-2-(1-(2,5-dimethoxyphenyl)-2-((5-(4-nitrophenyl)-4H-1,2,4-triazol-3-yl)thio)ethylidene)-N-(4-nitrophenyl)hydrazine-1-carbothioamide] | 4.3 ± 0.1 µM | 2.1 ± 0.1 µM | 2.04 | – | – |
| O=[N+]([O-])c1ccc(NC(=S)N/N=C(/CSc2nnc(-c3ccc([N+](=O)[O-])cc3)[nH]2)c2ccccc2[N+](=O)[O-])cc1 [6s, (.E)-N-(4-nitrophenyl)-2-(1-(2-nitrophenyl)-2-((5-(4-nitrophenyl)-4H-1,2,4-triazol-3-yl)thio)ethylidene)hydrazine-1-carbothioamide] | 2.3 ± 0.1 µM | 1.4 ± 0.05 µM | 1.64 | – | – |
| COc1cccc(/C(CSc2nnc(-c3ccc([N+](=O)[O-])cc3)[nH]2)=N\NC(=S)Nc2ccc(C)cc2[N+](=O)[O-])c1 [6t, (.E)-2-(1-(3-methoxyphenyl)-2-((5-(4-nitrophenyl)-4H-1,2,4-triazol-3-yl)thio)ethylidene)-N-(4-methyl-2-nitrophenyl)hydrazine-1-carbothioamide] | 2.5 ± 0.1 µM | 1.9 ± 0.1 µM | 1.32 | – | – |
| Cc1ccc(NC(=S)N/N=C(/CSc2nnc(-c3ccc([N+](=O)[O-])cc3)[nH]2)c2ccccc2[N+](=O)[O-])c([N+](=O)[O-])c1 [6r, (.E)-N-(4-methyl-2-nitrophenyl)-2-(1-(2-nitrophenyl)-2-((5-(4-nitrophenyl)-4H-1,2,4-triazol-3-yl)thio)ethylidene)hydrazine-1-carbothioamide] | 2.2 ± 0.1 µM | 1.3 ± 0.05 µM | 1.69 | – | – |
| Cc1ccc(-c2ccc(NC(=S)N/N=C(/CSc3nnc(-c4ccc([N+](=O)[O-])cc4)[nH]3)c3ccc(-c4ccccc4)cc3)cc2)cc1 [6d, (.E)-2-(1-([1,1′-biphenyl]-4-yl)-2-((5-(4-nitrophenyl)-4H-1,2,4-triazol-3-yl)thio)ethylidene)-N-(4′-methyl-[1,1′-biphenyl]-4-yl)hydrazine-1-carbothioamide] | – | – | – | completely inactive | completely inactive |
| O=[N+]([O-])c1ccc(-c2nnc(SC/C(=N/NC(=S)Nc3cc(Cl)c(Cl)cc3[N+](=O)[O-])c3ccccc3Br)[nH]2)cc1 [6a, (.E)-2-(1-(2-bromophenyl)-2-((5-(4-nitrophenyl)-4H-1,2,4-triazol-3-yl)thio)ethylidene)-N-(4,5-dichloro-2-nitrophenyl)hydrazine-1-carbothioamide] | 3.9 ± 0.1 µM | 2.2 ± 0.1 µM | 1.77 | – | – |
| CN(C)c1cc(Cl)c(NC(=S)N/N=C(/CSc2nnc(-c3ccc([N+](=O)[O-])cc3)[nH]2)c2ccc(-c3ccccc3)cc2)cc1Cl [6j, (.E)-2-(1-([1,1′-biphenyl]-4-yl)-2-((5-(4-nitrophenyl)-4H-1,2,4-triazol-3-yl)thio)ethylidene)-N-(2,5-dichloro-4-(dimethylamino)phenyl)hydrazine-1-carbothioamide] | 12.3 ± 0.3 µM | 11.3 ± 0.3 µM | 1.09 | – | – |
